pIC50: −log10 of the molar value.
Target: T1, HNE (Calbiochem) (Homo sapiens, UniProt P08246)
T1 construct: purchased Calbiochem
T1 sequence (P08246 30-267): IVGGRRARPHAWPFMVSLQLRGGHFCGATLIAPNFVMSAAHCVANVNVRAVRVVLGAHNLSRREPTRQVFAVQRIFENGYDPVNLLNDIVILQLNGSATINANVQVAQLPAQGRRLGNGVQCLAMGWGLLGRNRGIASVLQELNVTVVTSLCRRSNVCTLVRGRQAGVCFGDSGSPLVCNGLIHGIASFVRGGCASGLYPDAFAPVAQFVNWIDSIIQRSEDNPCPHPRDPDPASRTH
Experiment: HNE inhibition assay
Type: biochemical
Details: highest concentration tested 40 µM
Experimental: Compounds were dissolved in 100% DMSO at 5 mM stock concentrations. The final concentration of DMSO in the reactions was 1%, and this level of DMSO had no effect on enzyme activity. The HNE inhibition assay was performed in black flat-bottom 96-well microtiter plates. Briefly, a buffer solution containing 200 mM Tris–HCl, pH 7.5, 0.01% bovine serum albumin, and 0.05% Tween-20 and 20 mU/mL of HNE (Calbiochem) was added to wells containing different concentrations of each compound. The reaction was initiated by addition of 25 μM elastase substrate (N-methylsuccinyl-Ala–Ala-Pro-Val-7-amino-methyl-coumarin, Calbiochem) in a final reaction volume of 100 μL/well. Kinetic measurements were obtained every 30 s for 10 min at 25 °C using a Fluoroskan Ascent FL fluorescence microplate reader (Thermo Electron, MA) with excitation and emission wavelengths at 355 and 460 nm, respectively.

| Structure (SMILES) | HNE inhibitory activity |
| --- | --- |
| CC(=O)c1sc(OCOC(=O)c2ccccc2)nc1C [Compound 6b, (5-Acetyl-4-methylthiazol-2-yloxy)methyl benzoate] | inactivity |
| O=C(OCn1c(-c2ccccc2)csc1=O)c1ccccc1 [Compound 5a, (2-Oxo-4-phenylthiazol-3(2H)-yl)methyl benzoate] | inactivity |
| Cc1cccc(COc2nc(-c3ccccc3)cs2)c1 [Compound 6c, 2-(3-Methylbenzyloxy)-4-phenylthiazole] | inactive |
| O=C(OCOc1nc(-c2ccccc2)cs1)c1ccccc1 [Compound 6a, (4-Phenylthiazol-2-yloxy)methyl benzoate] | inactivity |
| CC(=O)c1sc(=O)n(COC(=O)c2ccccc2)c1C [Compound 5b, (5-Acetyl-4-methyl-2-oxothiazol-3(2H)-yl)methyl benzoate] | inactivity |
| Cc1cccc(Cn2c(-c3ccccc3)csc2=O)c1 [Compound 5c, 3-(3-Methylbenzyl)-4-phenylthiazol-2(3H)-one] | inactive |

Tested on: not given
Experiment: not given
Details: not given

| Structure (SMILES) | melting point [°C] |
| --- | --- |
| CC(=O)c1sc(=O)n(-c2cccc(C)c2)c1C [Compound 3c, 5-Acetyl-4-methyl-3-m-tolylthiazol-2(3H)-one] | 104 to 106 |
| Cc1cccc(-n2c(-c3ccccc3)csc2=O)c1 [Compound 3a, 4-Phenyl-3-m-tolyl-thiazol-2(3H)-one] | 118 to 121 |
| Cc1cccc(-n2c(C)csc2=O)c1 [Compound 3e, 4-Methyl-3-m-tolyl-thiazol-2(3H)-one] | 69 to 72 |
| O=C(Cn1c(-c2ccccc2)csc1=O)Nc1c(Cl)cccc1Cl [Compound 2b, N-(2,6-dichlorophenyl)-2-(2-oxo-4-phenylthiazol-3(2H)-yl)acetamide] | 213 to 216 |
| Cc1csc(=O)n1CC(=O)Nc1c(Cl)cccc1Cl [Compound 2f, N-(2,6-dichlorophenyl)-2-(4-methyl-2-oxothiazol-3(2H)-yl)acetamide] | 266 to 269 |
| CC(=O)c1sc(=O)n(-c2cccc(C(F)(F)F)c2)c1C [Compound 3d, 5-Acetyl-4-methyl-3-[3-(trifluoromethyl)phenyl]thiazol-2(3H)-one] | 147 to 150 |
| Cc1csc(=O)n1CC(=O)Nc1ccccc1 [Compound 2e, 2-(4-Methyl-2-oxothiazol-3(2H)-yl)-N-phenylacetamide] | 188 to 191 |
| CC(=O)c1sc(=O)n(COC(=O)c2ccccc2)c1C [Compound 5b, (5-Acetyl-4-methyl-2-oxothiazol-3(2H)-yl)methyl benzoate] | 121 to 123 |
| O=C(Cn1c(-c2ccccc2)csc1=O)Nc1ccccc1 [Compound 2a, 2-(2-Oxo-4-phenylthiazol-3(2H)-yl)-N-phenylacetamide] | 177 to 179 |
| CC(=O)c1sc(=O)n(CC(=O)Nc2c(Cl)cccc2Cl)c1C [Compound 2d, 2-(5-Acetyl-4-methyl-2-oxothiazol-3(2H)-yl)-N-(2,6-dichlorophenyl)acetamide] | 209 to 211 |
| CC(=O)c1sc(=O)n(CC(=O)Nc2ccccc2)c1C [Compound 2c, 2-(5-Acetyl-4-methyl-2-oxothiazol-3(2H)-yl)-N-phenylacetamide] | 188 to 190 |
| O=c1scc(-c2ccccc2)n1-c1cccc(C(F)(F)F)c1 [Compound 3b, 4-Phenyl-3-[3-(trifluoromethyl)phenyl]thiazol-2(3H)-one] | 84 to 87 |

Tested on: HNE
Experiment: not given
Details: HNE inhibitor, Fig. 1; cited from earlier work

| Structure (SMILES) | pIC50 |
| --- | --- |
| Cc1c(-c2ccnn2C)cc(C(=O)NCc2ccc(S(C)(=O)=O)cn2)c(=O)n1-c1cccc(C(F)(F)F)c1 [Alvelestat] | 7.92 |
